Columns and labels:
[1] = system: donor one normal human dermal fibroblasts induced with TGF-β1; experiment: Cell cytotoxicity assay (bis-AAF-R110 fluorescence); type: cell-based; conditions: for Cell cytotoxicity, relative fluorescence units: 50 ng/mL TGF-β1, 48 hours; for Cytotoxicity compared to the vehicle control (in words): statistics at 100 μM (FIG. 5); for Cytotoxicity, bosentan compared with sitaxentan (in words): statistics at 100 μM between groups (FIG. 5)
Method: (§1) The effect of sitaxentan on cell viability, cell cytotoxicity, and apoptosis was measured in an assay using donor one normal human dermal fibroblasts induced with TGF-β1 into a profibrotic phenotype. For these assays cells were grown for 48 hours in the presence of vehicle control, sitaxentan, and bosentan. The appropriate assay reagents and measuring techniques were used as indicated herein. donor one normal human dermal fibroblast cells (LLCT FC0024 lot 03869_ fibroblast) were seeded to confluence in 96 well plates in 10% fetal bovine serum (FBS) Dulbecco's modified eagle medium (DMEM). The cells were washed to remove the FBS, and serum free media is added overnight (O/N). The cells were then stimulated with 50 ng/mL TGF-β1 and treated for 48 hours. The following reagents were used for the different assays: For the cell viability/cytotoxicity assay: A master mix of the viability/cytotoxicity reagent was made by combining 10 uL of each substrate (GF-AFC and bis-AAF-R110) to 2 mLs of Assay Buffer (Promega, Cat #G6320). 20 μl of this viability/cytotoxicity reagent was then added to each well and briefly mixed. […] Data were analyzed using GraphPad Prism 7. Six to nine replicates were run for each sample.

[2] = system: donor one normal human dermal fibroblasts induced with TGF-β1; experiment: Collagen production, AlphaLISA hPIP assay; type: cell-based; conditions: for human procollagen Type I C-peptide (HPIP) level: 50 ng/mL TGF-β1, 48 hours; for Effect on elevated collagen levels (in words): statistics at 100 μM vs vehicle control and between groups (FIG. 3)
Method: The effect of sitaxentan on collagen production was measured in an AlphaLISA assay using donor one normal human dermal fibroblasts induced with TGF-β1 into a profibrotic phenotype. For this assay cells were grown for 48 hours in the presence of vehicle control, sitaxentan, and bosentan. See, http://www.perkinelmer.com/product/alphalisa-hpip-collagen-[…]. An AlphaLISA assay was used, which is a variation of FRET (Fluorescence resonance energy transfer) technology that allows for the detection of molecules of interest in a no-wash, highly sensitive, quantitative assay. In an AlphaLISA assay, a biotinylated anti-analyte antibody binds to Streptavidin-coated donor beads while another anti-analyte antibody is conjugated to AlphaLISA Acceptor beads. In the presence of the analyte, the beads come into close proximity. The excitation of the donor beads cause the release of singlet oxygen molecules that trigger a cascade of energy transfer in the acceptor beads, resulting in a sharp peak of light emission at 615 nm. donor one normal human dermal fibroblast cells (LLCT FC0024 lot 03869_ fibroblast) were seeded to confluence in 96 well plates in 10% fetal bovine serum (FBS) Dulbecco's modified eagle medium (DMEM). The cells were washed to remove the FBS, and serum free media was added overnight (O/N). The cells were then stimulated with 50 ng/mL TGF-β1 and treated. The supernatant media above the cells in the wells was collected and diluted 1:20 in serum-free DMEM media. 5 μL of each hPIP analyte standard or 5 μL of sample was added. 10 μL of 5× […] Acceptor beads was added (10 μg/mL final). The plate was incubated 30 minutes at 23° C. 10 μL of 5× Biotinylated Anti-hPIP Antibody was added (1 nM). The plate was incubated 60 minutes at 23° C. 25 μL of 2× Streptavidin-Donor beads were added (40 μg/mL final). The plate was incubated 30 minutes at 23° C. in the dark. The plate was read using a Perkin Elmer EnVision-Alpha Reader (615 nm). Data were analyzed using GraphPad Prism 7. Three to four replicates were run for each sample.

[3] = system: donor one normal human dermal fibroblasts induced with TGF-β1; experiment: Cell viability assay (GF-AFC fluorescence); type: cell-based; conditions: 50 ng/mL TGF-β1, 48 hours
Method: as §1

[4] = system: donor one normal human dermal fibroblasts induced with TGF-β1; experiment: Scratch (wound closure) assay, donor one NHDFs induced with TGF-β1; type: cell-based; conditions: for Scratch assay distance change: 50 ng/mL TGF-β1, 24 hours; for Effect on migration of fibroblasts (in words): donor one NHDFs, statistics at 100 μM vs vehicle control (FIG. 1)
Method: The effect of sitaxentan in a wound closure assay was measured using donor one normal human dermal fibroblasts induced with TGF-β1 into a profibrotic phenotype. […] For this assay the cells were grown to confluence, a scratch/ablation, i.e. “wound”, was created, and migration across the cleared zone was tracked. See, http://journals.plos.org/plosone/article?id=10.1371/journal.pone.0007438 and Wu, M. et al. Rosiglitazone abrogates bleomycin-induced scleroderma and blocks profibrotic responses through peroxisome proliferator-activated receptor-gamma. Am J Pathol174, 519-533, doi:10.2353/ajpath.2009.080574 (2009) donor one normal human dermal fibroblast cells (LLCT FC0024 lot 03869_ fibroblast) were seeded to confluence in 96 well plates in 10% fetal bovine serum (FBS) Dulbecco's modified eagle medium (DMEM). The cells were washed to remove the FBS, and serum free media was added for 16 hr overnight (O/N). Scratch assays were performed across each confluent monolayer. […] The cells were treated with increasing concentrations (1 μM, 3 μM, 10 μM, 30 μM, and 100 μM) of vehicle control, sitaxentan, and bosentan (as a comparator compound), in the presence of 50 ng/mL TGF-β1 to induce fibrogenesis. Six replicate samples were run for each concentration. Time zero images were taken and initial distance of the scratch/ablation recorded. The samples were incubated for 24 hours at 37° C., after which the media was removed and […] calcein acetoxymethyl (calcein AM) was added. The samples were incubated for 30 minutes. Images were taken and the distance of the scratch/ablation recorded. Decreases in distance indicated “wound” closure. Distances were calculated and analyzed using GraphPad Prism 7.

[5] = oral bosentan; cited from earlier work
[6] = system: donor one normal human dermal fibroblasts induced with TGF-β1; experiment: Apoptosis assay (Caspase-Glo 3/7 luminescence); type: cell-based; conditions: for Apoptosis, relative light units: 50 ng/mL TGF-β1, 48 hours; for Effect on apoptosis (in words): statistics at 100 μM vs vehicle control and between groups (FIG. 6)
Method: The effect of sitaxentan on cell viability, cell cytotoxicity, and apoptosis was measured in an assay using donor one normal human dermal fibroblasts induced with TGF-β1 into a profibrotic phenotype. For these assays cells were grown for 48 hours in the presence of vehicle control, sitaxentan, and bosentan. The appropriate assay reagents and measuring techniques were used as indicated herein. donor one normal human dermal fibroblast cells (LLCT FC0024 lot 03869_ fibroblast) were seeded to confluence in 96 well plates in 10% fetal bovine serum (FBS) Dulbecco's modified eagle medium (DMEM). The cells were washed to remove the FBS, and serum free media is added overnight (O/N). The cells were then stimulated with 50 ng/mL TGF-β1 and treated for 48 hours. For the apoptosis assay: 100 μl of Caspase-Glo® 3/7 Reagent (Promega, Cat #G6320), for the apoptosis assay, was subsequently added after the viability/cytotoxicity fluorescent reads and briefly mixed. The plate was incubated for an additional 30 minutes at room temperature prior to the measurement of luminescence to detect apoptosis. Data were analyzed using GraphPad Prism 7. Six to nine replicates were run for each sample.

[7] = in vivo; cited from earlier work

COc1ccccc1Oc1c(NS(=O)(=O)c2ccc(C(C)(C)C)cc2)nc(-c2ncccn2)nc1OCCO [BOS]
Cell cytotoxicity, relative fluorescence units ([1]; 1 μM): 4256.9 RFUs | Cell cytotoxicity, relative fluorescence units ([1]; 3 μM): 3954.2 RFUs | Cell cytotoxicity, relative fluorescence units ([1]; 10 μM): 3764.0 RFUs | Cell cytotoxicity, relative fluorescence units ([1]; 30 μM): 4607.5 RFUs | Cell cytotoxicity, relative fluorescence units ([1]; 100 μM): 3929.0 RFUs | Cytotoxicity compared to the vehicle control (in words) [1]: neither bosentan nor sitaxentan was significantly more cytotoxic than the vehicle control | Cytotoxicity, bosentan compared with sitaxentan (in words) [1]: significantly more cytotoxic than sitaxentan | human procollagen Type I C-peptide (HPIP) level ([2]; 1 μM): 8.2 ng/mL | human procollagen Type I C-peptide (HPIP) level ([2]; 3 μM): 8.6 ng/mL | human procollagen Type I C-peptide (HPIP) level ([2]; 10 μM): 7.9 ng/mL | human procollagen Type I C-peptide (HPIP) level ([2]; 30 μM): 7.1 ng/mL | human procollagen Type I C-peptide (HPIP) level ([2]; 100 μM): 6.8 ng/mL | Effect on elevated collagen levels (in words) [2]: significantly decreased elevated collagen levels | Cell viability, relative fluorescence units ([3]; 1 μM): 5406.8 RFUs | Cell viability, relative fluorescence units ([3]; 3 μM): 5548.5 RFUs | Cell viability, relative fluorescence units ([3]; 10 μM): 5521.2 RFUs | Cell viability, relative fluorescence units ([3]; 30 μM): 5537.0 RFUs | Cell viability, relative fluorescence units ([3]; 100 μM): 5584.3 RFUs | Scratch assay distance change ([4]; 1 μM): 478 µm | Scratch assay distance change ([4]; 3 μM): 356 µm | Scratch assay distance change ([4]; 10 μM): 359 µm | Scratch assay distance change ([4]; 30 μM): 535 µm | Scratch assay distance change ([4]; 100 μM): 414 µm | Effect on migration of fibroblasts (in words) [4]: no significant effect | Cessation of treatment due to liver enzyme abnormalities, share of patients [5]: about 5% | Liver enzyme abnormalities, share of patients affected [5]: about 10% | Apoptosis, relative light units ([6]; 1 μM): 39366.8 RLUs | Apoptosis, relative light units ([6]; 3 μM): 38639.8 RLUs | Apoptosis, relative light units ([6]; 10 μM): 38586.7 RLUs | Apoptosis, relative light units ([6]; 30 μM): 42825.2 RLUs | Apoptosis, relative light units ([6]; 100 μM): 43330.7 RLUs | Effect on apoptosis (in words) [6]: elevated

Cc1cc2c(cc1CC(=O)c1sccc1S(=O)(=O)Nc1onc(C)c1Cl)OCO2 [SIT, N-(4-Chloro-3-methyl-5-isoxazolyl)-2-[(2-methyl-4,5-methylenedioxyphenyl)-acetyl]thiophene-3-sulfonamide]
Cell cytotoxicity, relative fluorescence units ([1]; 1 μM): 4643.9 RFUs | Cell cytotoxicity, relative fluorescence units ([1]; 3 μM): 5058.3 RFUs | Cell cytotoxicity, relative fluorescence units ([1]; 10 μM): 4741.7 RFUs | Cell cytotoxicity, relative fluorescence units ([1]; 30 μM): 3837.5 RFUs | Cell cytotoxicity, relative fluorescence units ([1]; 100 μM): 2911.3 RFUs | Cytotoxicity compared to the vehicle control (in words) [1]: neither bosentan nor sitaxentan was significantly more cytotoxic than the vehicle control | Cytotoxicity, bosentan compared with sitaxentan (in words) [1]: significantly less cytotoxic | human procollagen Type I C-peptide (HPIP) level ([2]; 1 μM): 7.0 ng/mL | human procollagen Type I C-peptide (HPIP) level ([2]; 3 μM): 7.1 ng/mL | human procollagen Type I C-peptide (HPIP) level ([2]; 10 μM): 6.4 ng/mL | human procollagen Type I C-peptide (HPIP) level ([2]; 30 μM): 5.8 ng/mL | human procollagen Type I C-peptide (HPIP) level ([2]; 100 μM): 2.2 ng/mL | Effect on elevated collagen levels (in words) [2]: significantly more efficacious than bosentan and returning collagen levels to untreated / uninduced levels | Cell viability, relative fluorescence units ([3]; 1 μM): 5678.3 RFUs | Cell viability, relative fluorescence units ([3]; 3 μM): 5639.0 RFUs | Cell viability, relative fluorescence units ([3]; 10 μM): 5600.5 RFUs | Cell viability, relative fluorescence units ([3]; 30 μM): 5250.8 RFUs | Cell viability, relative fluorescence units ([3]; 100 μM): 5171.0 RFUs | Scratch assay distance change ([4]; 1 μM): 506 µm | Scratch assay distance change ([4]; 3 μM): 557 µm | Scratch assay distance change ([4]; 10 μM): 496 µm | Scratch assay distance change ([4]; 30 μM): 494 µm | Scratch assay distance change ([4]; 100 μM): 269 µm | Effect on migration of fibroblasts (in words) [4]: significantly reduced the migration | Apoptosis, relative light units ([6]; 1 μM): 37593.4 RLUs | Apoptosis, relative light units ([6]; 3 μM): 39162.8 RLUs | Apoptosis, relative light units ([6]; 10 μM): 39512.0 RLUs | Apoptosis, relative light units ([6]; 30 μM): 46053.5 RLUs | Apoptosis, relative light units ([6]; 100 μM): 51050.2 RLUs | Effect on apoptosis (in words) [6]: significantly more potent effect than bosentan | Metabolism [7]: hepatic (CYP2C9- and CYP3A4-mediated) | Protein binding [7]: > 99%
